These results are taken from US7335659B2, “Substituted 10-aryl-11H-benzo[b]fluorenes and 7-aryl-5, 6-dihydro-benzo[a]anthracenes for selective effects on estrogen receptors” (N.V. Organon, priority 2002, dated 2008).

For the experiment, the target named is T1, human estrogen receptor β receptor (hERβ) (Homo sapiens, UniProt Q92731).
T1 construct: expressed in transfected cells; host or cells: Chinese hamster ovary (CHO) cells, stably co-transfected with hERβ, rat oxytocin promoter and luciferase reporter gene
T1 sequence (Q92731 whole entry): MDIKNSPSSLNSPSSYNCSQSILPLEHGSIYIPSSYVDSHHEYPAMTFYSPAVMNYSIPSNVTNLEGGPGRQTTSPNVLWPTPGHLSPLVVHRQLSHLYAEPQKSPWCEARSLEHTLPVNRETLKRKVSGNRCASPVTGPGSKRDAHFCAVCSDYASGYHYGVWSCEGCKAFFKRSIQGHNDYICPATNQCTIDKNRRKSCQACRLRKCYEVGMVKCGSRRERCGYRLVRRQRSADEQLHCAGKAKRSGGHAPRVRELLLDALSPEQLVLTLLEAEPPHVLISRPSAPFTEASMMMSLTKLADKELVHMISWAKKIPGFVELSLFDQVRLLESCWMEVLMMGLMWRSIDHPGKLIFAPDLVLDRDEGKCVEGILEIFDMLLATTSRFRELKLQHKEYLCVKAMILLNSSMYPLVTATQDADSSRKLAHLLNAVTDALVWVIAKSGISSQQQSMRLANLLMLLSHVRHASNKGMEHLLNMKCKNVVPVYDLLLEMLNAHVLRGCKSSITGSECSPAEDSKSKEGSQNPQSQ
The experiment is described as follows: Antiestrogenic activity in in vitro bioassay with recombinant CHO cells co-transfected with hERβ, rat oxytocin promoter and luciferase reporter gene. In kind it is cell-based. As to conditions: potency ratio relative to standard ICI 164.384; inhibition of estradiol-induced luciferase transactivation via hERβ in CHO cells. As for the experimental part:
The estrogenic and antiestrogenic activity of compounds is determined in an in vitro bioassay with recombinant Chinese hamster ovary (CHO) cells stably co-transfected with the human estrogen receptor α (hERα) or β receptor (hERβ), the rat oxytocin promoter (RO) and the luciferase reporter gene (LUC). The estrogenic activity (potency ratio) of a test compound to stimulate the transactivation of the enzyme luciferase mediated via the estrogen receptors hERα or hERβ is compared with the standard estrogen estradiol. The antiestrogenic activity (potency ratio) of a test compound to inhibit the transactivation of the enzyme luciferase mediated via the estrogen receptors hERα or hERβ by the estrogen estradiol is compared with the standard ICI 164.384 (=(7α, 17β)-N-butyl-3,17-dihydroxy-N-methylestra-1,3,5(10)-triene-7-undecanamide).
(A reporter such as luciferase makes a cellular process visible.)
In the case of `Oc1ccc2c(c1)Cc1c-2cc2ccc(O)cc2c1-c1ccc(Cl)cc1` [Compound 5a], the ERβ antagonism entry was “+ (>5% (relative to ICI): +)”.
For `Oc1ccc2c(c1)Cc1c-2cc2ccc(O)cc2c1-c1ccc2ccccc2c1` [Compound 5b], the ERβ antagonism entry was “+ (>5% (relative to ICI): +)”.
The entry for `COc1cccc(-c2c3c(cc4ccc(O)cc24)-c2ccc(O)cc2C3)c1` [Compound 5c] is “+ (>5% (relative to ICI): +)”; for `Oc1ccc2c(c1)Cc1c-2cc2ccc(O)cc2c1-c1cccc(C(F)(F)F)c1` [Compound 5d] it is “+ (>5% (relative to ICI): +)”; for `Cc1ccc(-c2c3c(cc4ccc(O)cc24)-c2ccc(O)cc2C3)cc1` [Compound 5e] it is “++ (>40%: ++)”.
As for `Oc1ccc2c(c1)Cc1c-2cc2ccc(O)cc2c1-c1ccc(F)c(Cl)c1` [Compound 5f], the ERβ antagonism entry is listed as “+ (>5% (relative to ICI): +)”.
The entry for `Oc1ccc2c(c1)Cc1c-2cc2ccc(O)cc2c1-c1ccc2c(c1)OCO2` [Compound 5g] is “+ (>5% (relative to ICI): +)”; for `Oc1ccc2c(c1)Cc1c-2cc2ccc(O)cc2c1-c1ccc(-c2ccccc2)cc1` [Compound 5h] it is “+ (>5% (relative to ICI): +)”; for `Oc1ccc2c(c1)Cc1c-2cc2ccc(O)cc2c1-c1cccc(F)c1` [Compound 5j] it is “+ (>5% (relative to ICI): +)”.
As for `COc1ccc(-c2c3c(cc4ccc(O)cc24)-c2ccc(O)cc2C3)cc1` [Compound 5k], the ERβ antagonism entry was “+ (>5% (relative to ICI): +)”.
In the case of `Oc1ccc2c(c1)Cc1c-2cc2ccc(O)cc2c1-c1ccc(F)cc1` [Compound 5l], the ERβ antagonism entry was “++ (>40%: ++)”.
The entry for `Oc1ccc2c(c1)Cc1c-2cc2ccc(O)cc2c1-c1ccc(Cl)c(Cl)c1` [Compound 5m] is “++ (>40%: ++)”.
With `Oc1ccc2c(c1)Cc1c-2cc2ccc(O)cc2c1-c1cccc(Cl)c1` [Compound 5n] the entry was “+ (>5% (relative to ICI): +)”; with `Oc1ccc2c(c1)Cc1c-2cc2ccc(O)cc2c1-c1ccc(C(F)(F)F)cc1` [Compound 5o], “+ (>5% (relative to ICI): +)”.
As for `Cc1cccc(-c2c3c(cc4ccc(O)cc24)-c2ccc(O)cc2C3)c1` [Compound 5p], the ERβ antagonism entry was “+ (>5% (relative to ICI): +)”.
In the case of `CC(C)c1cccc(-c2c3c(cc4ccc(O)cc24)-c2ccc(O)cc2C3)c1` [Compound 5q], the ERβ antagonism result is on record as “+ (>5% (relative to ICI): +)”.
Turning to `Oc1ccc2c(c1)Cc1c-2cc2ccc(O)cc2c1-c1ccc(OC(F)(F)F)cc1` [Compound 5r], the ERβ antagonism result is reported as “++ (>40%: ++)”.
Take `Oc1ccc2c(c1)Cc1c-2cc2ccc(O)cc2c1-c1ccc(-c2ccccc2)c(F)c1` [Compound 5s]: the ERβ antagonism entry is “+ (>5% (relative to ICI): +)”.
In the case of `Oc1ccc2c(c1)Cc1c-2cc2ccc(O)cc2c1-c1ccccc1C(F)(F)F` [Compound 5u], the ERβ antagonism result is reported as “++ (>40%: ++)”.
With `Oc1ccc2c(c1)Cc1c-2cc2ccc(O)cc2c1-c1ccccc1` [Compound 5v] the entry was “+ (>5% (relative to ICI): +)”.
With `Oc1ccc2c(c1)Cc1c-2cc2ccc(O)cc2c1-c1ccc(OCCN2CCCCC2)cc1` [Compound 9] the entry was “++ (>40%: ++)”.
